Patent US7968716B2, “Caspase inhibitors and uses thereof” (Vertex Pharmaceuticals Incorporated, priority 2000, dated 2011)
pIC50: −log10 of the molar value. One block for each molecule: values may come before it.

Tests used:
[1] = biological target: T1, recombinant, purified human Caspase-3 (Homo sapiens, UniProt P42574); test: Caspase-3 enzyme assay, fluorogenic substrate cleavage; type: biochemical; conditions: second order rate constant of enzyme inactivation; substrate Acetyl-Asp-Glu-Val-Asp-amino-4-methylcoumarin
T1 sequence (P42574 29-175 limits assumed): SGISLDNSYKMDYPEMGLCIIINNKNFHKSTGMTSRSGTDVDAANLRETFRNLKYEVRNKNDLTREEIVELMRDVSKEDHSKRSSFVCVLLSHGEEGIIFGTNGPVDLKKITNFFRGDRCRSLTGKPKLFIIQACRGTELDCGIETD
T1 sequence (P42574 176-277 limits assumed): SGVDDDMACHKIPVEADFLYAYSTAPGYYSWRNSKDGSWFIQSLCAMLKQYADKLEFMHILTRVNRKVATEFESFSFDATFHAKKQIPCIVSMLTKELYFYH
Text: (§1) The assays for caspase inhibition are based on the cleavage of a fluorogenic substrate by recombinant, purified human Caspases -1, -3, -7 or -8. The assays are run in essentially the same way as those reported by Garcia-Calvo et al. (J. Biol. Chem. 273 (1998), 32608-32613), using a substrate specific for each enzyme. The substrate for Caspase-1 is Acetyl-Tyr-Val-Ala-Asp-amino-4-methylcoumarin. The substrate for Caspases -3, -7 and -8 is Acetyl-Asp-Glu-Val-Asp-amino-4-methylcoumarin.
(§2) The observed rate of enzyme inactivation at a particular inhibitor concentration, kobs, is computed by direct fits of the data to the equation derived by Thornberry et al. (Biochemistry 33 (1994), 3943-3939) using a nonlinear least-squares analysis computer program (PRISM 2.0; GraphPad software). To obtain the second order rate constant, kinact, kobs values are plotted against their respective inhibitor concentrations and kinact values are subsequently calculated by computerized linear regression.

[2] = biological target: T2, recombinant, purified human Caspase-1 (Homo sapiens, UniProt P29466); test: Caspase-1 enzyme assay, fluorogenic substrate cleavage; type: biochemical; conditions: second order rate constant of enzyme inactivation; substrate Acetyl-Tyr-Val-Ala-Asp-amino-4-methylcoumarin
T2 sequence (P29466 120-297 limits assumed): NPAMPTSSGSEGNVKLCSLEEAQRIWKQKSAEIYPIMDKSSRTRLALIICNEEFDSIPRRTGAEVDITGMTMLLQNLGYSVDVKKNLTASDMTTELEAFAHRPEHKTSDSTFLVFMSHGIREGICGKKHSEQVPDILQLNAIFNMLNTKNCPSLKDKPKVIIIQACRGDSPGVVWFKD
T2 sequence (P29466 317-404 limits assumed): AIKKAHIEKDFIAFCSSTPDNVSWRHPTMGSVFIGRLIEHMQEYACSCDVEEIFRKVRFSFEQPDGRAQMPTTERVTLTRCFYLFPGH
Text: as §1, §2

[3] = biological target: T3, recombinant, purified human Caspase-7 (Homo sapiens, UniProt P55210); test: Caspase-7 enzyme assay, fluorogenic substrate cleavage; type: biochemical; conditions: second order rate constant of enzyme inactivation; substrate Acetyl-Asp-Glu-Val-Asp-amino-4-methylcoumarin
T3 sequence (P55210 24-198 limits assumed): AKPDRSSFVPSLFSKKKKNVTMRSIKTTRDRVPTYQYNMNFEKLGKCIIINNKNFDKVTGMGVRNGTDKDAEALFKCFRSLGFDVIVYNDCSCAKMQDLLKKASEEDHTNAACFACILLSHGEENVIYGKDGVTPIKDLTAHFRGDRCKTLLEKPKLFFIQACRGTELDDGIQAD
T3 sequence (P55210 207-303 limits assumed): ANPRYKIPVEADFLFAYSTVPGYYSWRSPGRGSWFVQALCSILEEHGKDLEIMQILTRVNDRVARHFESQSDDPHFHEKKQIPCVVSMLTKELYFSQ
Text: as §1, §2

[4] = system: IL-1β secretion from peripheral blood mononuclear cells (PBMC); test: Inhibition of IL-1β secretion from PBMC; type: cell-based; conditions: human PBMC, LPS 50 ng/ml, 16-18 h, mature IL-1β in supernatant
Protocol: Processing of pre-IL-1β by caspase-1 can be measured in cell culture using a variety of cell sources. Human PBMC obtained from healthy donors provides a mixed population of lymphocyte and mononuclear cells that produce a spectrum of interleukins and cytokines in response to many classes of physiological stimulators.
The test compound is dissolved in Dimethyl Sulphoxide (DMSO, Sigma #D-2650) to give a 100 mM stock solution. This is diluted in complete medium consisting of RPMI containing 10% heat inactivated FCS (Gibco BRL #10099-141), 2 mM L-Glutamine (Sigma, #G-7513), 100 U penicillin and 100 μg/ml streptomycin (Sigma #P-7539). The final concentration range of test compound is from 100 μM down to 6 nM over eight dilution steps. The highest concentration of test compound is equivalent to 0.1% DMSO in the assay.
Human PBMC are isolated from Buffy Coats obtained from the blood bank using centrifugation on Ficoll-Paque leukocyte separation medium (Amersham, #17-1440-02) and the cellular assay is performed in a sterile 96 well flat-bottomed plate (Nunc). Each well contains 100 μl of the cell suspension, 1×10^5 cells, 50 μl of compound dilutions and 50 μl of LPS (Sigma #L-3012) at 50 ng/ml final concentration. Controls consist of cells +/− LPS stimulation and a serial dilution of DMSO diluted in the same way as compound. […]

[5] = biological target: recombinant, purified human Caspase-8 (Homo sapiens, UniProt Q14790); test: Caspase-8 enzyme assay, fluorogenic substrate cleavage; type: biochemical; conditions: second order rate constant of enzyme inactivation; substrate Acetyl-Asp-Glu-Val-Asp-amino-4-methylcoumarin
Text: as §1, §2

Jurkat E6.1 cells = test: Anti-Fas induced apoptosis assay; type: cell-based; conditions: Homo sapiens, anti-Fas antibody CH-11 10 ng/ml, 16-18 hrs, DNA fragmentation
Text: Cellular apoptosis may be induced by the binding of Fas ligand (FasL) to its receptor, CD95 (Fas). CD95 is one of a family of related receptors, known as death receptors, which can trigger apoptosis in cells via activation of the caspase enzyme cascade. The process is initiated by the binding of the adapter molecule FADD/MORT-1 to the cytoplasmic domain of the CD-95 receptor-ligand complex. Caspase-8 then binds FADD and becomes activated, initiating a cascade of events that involve the activation of downstream caspases and subsequent cellular apoptosis. […]
Jurkat E6.1 cells are cultured in complete medium consisting of RPMI-1640 (Sigma No)+10% foetal calf serum (Gibco BRL No. 10099-141)+2 mM L-glutamine (Sigma No. G-7513). […] The cells are counted and the density adjusted to 2×10^6 cells/ml with complete medium. […]
Apoptosis of the cells is measured by the quantitation of DNA fragmentation using a ‘Cell Death Detection Assay’ from Boehringer-Mannheim, No. 1544 675. […] OD405 nm is measured 20 minutes after addition of the final substrate in a SPECTRAmax Plus plate reader (Molecular Devices). OD405 nm is plotted versus compound concentration and the IC50 values for the compounds are calculated using the curve-fitting program SOFTmax Pro (Molecular Devices) using the four parameter fit option.

Sequence of recombinant, purified human Caspase-8 (Q14790 217-374 limits assumed): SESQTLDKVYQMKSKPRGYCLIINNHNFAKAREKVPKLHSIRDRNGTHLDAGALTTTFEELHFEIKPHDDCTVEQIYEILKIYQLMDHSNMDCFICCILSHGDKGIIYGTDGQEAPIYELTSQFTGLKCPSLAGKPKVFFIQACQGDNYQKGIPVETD
Sequence of recombinant, purified human Caspase-8 (Q14790 385-479 limits assumed): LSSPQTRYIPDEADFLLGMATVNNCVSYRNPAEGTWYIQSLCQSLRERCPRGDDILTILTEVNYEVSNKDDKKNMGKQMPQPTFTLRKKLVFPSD

Kinact, Caspase-3 Activity [1]: 160500 M⁻¹ s⁻¹
Compound: O=C(O)CC(NC(=O)[C@@H]1CCc2nc3ccccc3c(=O)n21)C(=O)CF (stereo partly drawn) [Example 1, [3S/R(1S)]-3-(2,3-Dihydro-1H-9-oxo-pyrrolo[2,1-b]quinazolin-1-carboxamido)-5-fluoro-4-oxo-pentanoic acid]

Kinact, Caspase-1 Activity [2]: 455000 M⁻¹ s⁻¹
Compound: O=C(O)CC(NC(=O)[C@@H]1CCCc2nc3ccccc3c(=O)n21)C(=O)CF (stereo partly drawn) [Example 2, [3S/R(9S)]-5-Fluoro-4-oxo-3-(11-oxo-6,7,8,9-tetrahydro-11H-pyrido[2,1-b]quinazolin-9-carboxamido)-pentanoic acid]

Kinact, Caspase-7 Activity [3]: 229000 M⁻¹ s⁻¹
Compound: O=C(O)CC(NC(=O)[C@@H]1CCc2cc3ccccc3c(=O)n21)C(=O)CF (stereo partly drawn) [Example 3, [3S/R(3S)]-3-(2,3-Dihydro-1H-5-oxo-pyrrolo[1,2-b]isoquinolin-3-carboxamido)-5-fluoro-4-oxo-pentanoic acid]

Compound: O=C(O)CC(NC(=O)[C@@H]1CCCc2cc3ccccc3c(=O)n21)C(=O)CF (stereo partly drawn) [Example 4, [3S/R(4S)]-5-Fluoro-4-oxo-3-(6-oxo-1,2,3,4-tetrahydro-6H-benzo[b]quinolizin-4-carboxamido)-pentanoic acid]
pIC50 [4]: 6.24

Caspase-8 Kinact [5]: 82000 M⁻¹ s⁻¹
Compound: O=C(O)CC(NC(=O)[C@@H]1CCCn2c(=O)c3ccccc3c(=O)n21)C(=O)CF (stereo partly drawn) [Example 5, [3S/R(1S)]-3-(6,11-Dioxo-1,2,3,4-tetrahydro-pyridazino[1,2-b]phthalazin-1-carboxamido)-5-fluoro-4-oxo-pentanoic acid]

pIC50 (Jurkat E6.1 cells): 6.77
Compound: O=C(O)CC(NC(=O)[C@@H]1CCCn2c(=O)c3nccnc3c(=O)n21)C(=O)CF (stereo partly drawn) [Example 6, [3S/R(5S)]-(9,10-Dioxo-5,6,7,8,9,10-hexahydro-1,4,8a,10a-tetraazaanthracene-5-carboxamido)-5-fluoro-4-oxo-3-pentanoic acid]
